Measurements: US7291649B2, “Forming germicidal aromatic dialdehydes with acetals” (Ethicon, Inc., priority 2005, dated 2007)
Each block holds one molecule with its values, some of them ahead of it.

What was measured:
[1] = Hydrolysis of OPA acetals to OPA in distilled water at various pH, monitored by GC/MS; format: physicochemical; details: room temperature
Experimental: The reactions of 1,3-dimethoxyphthalan, 1,3-diethoxyphthalan, a PEG 200 pegylated OPA acetal at various pH in distilled water were evaluated at room temperature. The acetals were suspended in distilled water, followed by pH measurement, and pH adjustment with either hydrogen chloride (HCl), phthalic acid, or sodium hydroxide (NaOH), depending on the particular pH. The mixture was stirred at room temperature and monitored by gas chromatograph/mass spectroscopy (GC/MS) at various time intervals.
The hydrolysis rate depends upon pH. Over the range of pH investigated, the lower the pH, the faster the hydrolysis rate.

[2] = cited from earlier work
[3] = Hydrolysis of the tetramethyl acetal of IPA to IPA in water, gas chromatography; format: physicochemical; details: pH 4.34 (HCl)
Experimental: The process takes place in two staged reactions. In one experiment, the tetramethyl acetal of IPA (0.114 g, 0.504 mmol) was suspended in 100 mL of water including 67 mg of OPA as the internal standard. A relatively large volume of water was used due to the low solubility of IPA. The pH of the water was adjusted to 4.34 with 1% HCl. At various time intervals 0.5 mL of the reaction mixture was sampled and extracted with 1 mL of ethyl acetate (EtOAc). The samples were analyzed with gas chromatography.
The diacetal starting material disappeared within 8 h, but hydrolysis of the second acetal group of the monoacetal took longer period of time.

[4] = Hydrolysis of 1,3-diethoxyphthalan in the presence of OPA in distilled water at various pH, monitored by GC/MS; format: physicochemical
Experimental: The hydrolysis of 1,3-diethoxyphthalan in the presence of OPA in distilled water at various pH was evaluated at room temperature. 1,3-Diethoxyphthalan was added to the OPA solution in distilled water, followed by pH measurement and adjustment with either HCl or NaOH, depending on the pH. The mixtures were stirred at room temperature and monitored by GC/MS at various time intervals.

[5] = Solubility in 30% polyethylene glycol plus water solution; format: physicochemical
[6] = pH = 6.95, NaOH adjusted, 120 h
[7] = pH = 6.95, NaOH adjusted, 168 h
[8] = pH = 6.95, NaOH adjusted, 240 h
[9] = pH = 6.95, NaOH adjusted, 312 h
[10] = pH = 6.95, NaOH adjusted, 480 h
[11] = pH = 6.95, NaOH adjusted, 552 h
[12] = pH = 8.9, NaOH adjusted, 1200 h

OPA (w/w %) ([1]; pH = 5.0 (phthalic acid), water, 0 h): 0.000 w/w % | OPA (w/w %) ([1]; pH = 5.0 (phthalic acid), water, 24 h): 0.028 w/w % | OPA (w/w %) ([1]; pH = 5.0 (phthalic acid), water, 120 h): 0.166 w/w % | OPA (w/w %) ([1]; pH = 5.0 (phthalic acid), water, 240 h): 0.301 w/w % | OPA (w/w %) ([1]; pH = 5.0 (phthalic acid), water, 360 h): 0.367 w/w % | OPA (w/w %) ([1]; pH = 5.0 (phthalic acid), water, 480 h): 0.405 w/w % | OPA (w/w %) ([1]; pH = 5.0 (phthalic acid), water, 576 h): 0.417 w/w %
SMILES: COC1OC(OC)c2ccccc21 (centres unmarked) [1,3-dimethoxyphthalan]

SMILES: O=Cc1ccccc1C=O [phthalaldehyde, 1,2-benzenedicarboxaldehyde]
Solubility in water [2]: about 5 % by weight

Mole % in reaction mixture during hydrolysis ([3]; 8 h): 79.7 Mole % | wt % in reaction mixture during hydrolysis ([3]; 8 h): 0.091 wt % | Mole % in reaction mixture during hydrolysis ([3]; 32 h): 33.9 Mole % | wt % in reaction mixture during hydrolysis ([3]; 32 h): 0.039 wt % | Mole % in reaction mixture during hydrolysis ([3]; 54 h): 0 Mole % | wt % in reaction mixture during hydrolysis ([3]; 54 h): 0 wt %
SMILES: COC(OC)c1cccc(C=O)c1 [Monoacetal]

OPA (w/w %) ([1]; pH = 5.4, HCl adjusted, water, 0 h): 0.000 w/w % | OPA (w/w %) ([1]; pH = 5.4, HCl adjusted, water, 2 h): 0.024 w/w % | OPA (w/w %) ([1]; pH = 5.4, HCl adjusted, water, 48 h): 0.056 w/w % | OPA (w/w %) ([1]; pH = 5.4, HCl adjusted, water, 120 h): 0.158 w/w % | OPA (w/w %) ([1]; pH = 5.4, HCl adjusted, water, 240 h): 0.296 w/w % | OPA (w/w %) ([1]; pH = 5.4, HCl adjusted, water, 360 h): 0.525 w/w % | OPA (w/w %) ([1]; pH = 5.4, HCl adjusted, water, 480 h): 0.596 w/w % | OPA (w/w %) ([1]; pH = 6.9, water, 0 h): 0.000 w/w % | OPA (w/w %) ([1]; pH = 6.9, water, 1 h): 0.000 w/w % | OPA (w/w %) ([1]; pH = 6.9, water, 20 h): 0.010 w/w % | OPA (w/w %) ([1]; pH = 6.9, water, 144 h): 0.097 w/w % | OPA (w/w %) ([1]; pH = 6.9, water, 240 h): 0.204 w/w % | OPA (w/w %) ([1]; pH = 6.9, water, 359 h): 0.419 w/w % | OPA (w/w %) ([1]; pH = 6.9, water, 480 h): 0.476 w/w % | OPA (w/w %) ([1]; pH = 10.8, NaOH adjusted, water, 48 h): 0.0048 w/w % | OPA (w/w %) ([1]; pH = 10.8, NaOH adjusted, water, 120 h): 0.0062 w/w % | OPA (w/w %) ([1]; pH = 10.8, NaOH adjusted, water, 480 h): 0.0473 w/w % | OPA (w/w %) ([1]; pH = 10.8, NaOH adjusted, water, 720 h): 0.112 w/w % | OPA (w/w %) ([1]; pH = 10.8, NaOH adjusted, water, 960 h): 0.229 w/w % | Acetal % ([4]; pH = 6.95, NaOH adjusted, 0 h): 21.8% | OPA % ([4]; pH = 6.95, NaOH adjusted, 0 h): 78.2% | OPA (w %) ([4]; pH = 6.95, NaOH adjusted, 0 h): 0.498 w % | Acetal % ([4]; pH = 6.95, NaOH adjusted, 48 h): 18.1% | OPA % ([4]; pH = 6.95, NaOH adjusted, 48 h): 81.9% | OPA (w %) ([4]; pH = 6.95, NaOH adjusted, 48 h): 0.509 w % | Acetal % [4, 6]: 12.1% | OPA % [4, 6]: 87.9% | OPA (w %) [4, 6]: 0.527 w % | Acetal % [4, 7]: 9.4% | OPA % [4, 7]: 90.6% | OPA (w %) [4, 7]: 0.535 w % | Acetal % [4, 8]: 6.4% | OPA % [4, 8]: 93.6% | OPA (w %) [4, 8]: 0.543 w % | Acetal % [4, 9]: 4.2% | OPA % [4, 9]: 95.8% | OPA (w %) [4, 9]: 0.550 w % | Acetal % [4, 10]: 1.2% | OPA % [4, 10]: 98.8% | OPA (w %) [4, 10]: 0.559 w % | Acetal % [4, 11]: 0.7% | OPA % [4, 11]: 99.3% | OPA (w %) [4, 11]: 0.560 w % | Acetal % ([4]; pH = 8.0, NaOH adjusted, 0 h): 20.9% | OPA % ([4]; pH = 8.0, NaOH adjusted, 0 h): 79.1% | OPA (w %) ([4]; pH = 8.0, NaOH adjusted, 0 h): 0.498 w % | Acetal % ([4]; pH = 8.0, NaOH adjusted, 48 h): 21.6% | OPA % ([4]; pH = 8.0, NaOH adjusted, 48 h): 78.4% | OPA (w %) ([4]; pH = 8.0, NaOH adjusted, 48 h): 0.496 w % | Acetal % ([4]; pH = 8.0, NaOH adjusted, 144 h): 18.6% | OPA % ([4]; pH = 8.0, NaOH adjusted, 144 h): 81.4% | OPA (w %) ([4]; pH = 8.0, NaOH adjusted, 144 h): 0.505 w % | Acetal % ([4]; pH = 8.0, NaOH adjusted, 240 h): 17% | OPA % ([4]; pH = 8.0, NaOH adjusted, 240 h): 83.0% | OPA (w %) ([4]; pH = 8.0, NaOH adjusted, 240 h): 0.510 w % | Acetal % ([4]; pH = 8.0, NaOH adjusted, 312 h): 15.2% | OPA % ([4]; pH = 8.0, NaOH adjusted, 312 h): 84.8% | OPA (w %) ([4]; pH = 8.0, NaOH adjusted, 312 h): 0.515 w % | Acetal % ([4]; pH = 8.0, NaOH adjusted, 480 h): 10.4% | OPA % ([4]; pH = 8.0, NaOH adjusted, 480 h): 89.6% | OPA (w %) ([4]; pH = 8.0, NaOH adjusted, 480 h): 0.530 w % | Acetal % ([4]; pH = 8.0, NaOH adjusted, 576 h): 8.1% | OPA % ([4]; pH = 8.0, NaOH adjusted, 576 h): 91.9% | OPA (w %) ([4]; pH = 8.0, NaOH adjusted, 576 h): 0.537 w % | Acetal % ([4]; pH = 8.0, NaOH adjusted, 720 h): 3.4% | OPA % ([4]; pH = 8.0, NaOH adjusted, 720 h): 96.6% | OPA (w %) ([4]; pH = 8.0, NaOH adjusted, 720 h): 0.551 w % | Acetal % ([4]; pH = 8.0, NaOH adjusted, 840 h): 2% | OPA % ([4]; pH = 8.0, NaOH adjusted, 840 h): 98.0% | OPA (w %) ([4]; pH = 8.0, NaOH adjusted, 840 h): 0.555 w % | Acetal % ([4]; pH = 8.0, NaOH adjusted, 960 h): 1% | OPA % ([4]; pH = 8.0, NaOH adjusted, 960 h): 99.0% | OPA (w %) ([4]; pH = 8.0, NaOH adjusted, 960 h): 0.558 w % | Acetal % ([4]; pH = 8.9, NaOH adjusted, 0 h): 21.8% | OPA % ([4]; pH = 8.9, NaOH adjusted, 0 h): 78.2% | OPA (w %) ([4]; pH = 8.9, NaOH adjusted, 0 h): 0.498 w % | Acetal % ([4]; pH = 8.9, NaOH adjusted, 96 h): 21.4% | OPA % ([4]; pH = 8.9, NaOH adjusted, 96 h): 78.6% | OPA (w %) ([4]; pH = 8.9, NaOH adjusted, 96 h): 0.498 w % | Acetal % ([4]; pH = 8.9, NaOH adjusted, 240 h): 18.8% | OPA % ([4]; pH = 8.9, NaOH adjusted, 240 h): 81.2% | OPA (w %) ([4]; pH = 8.9, NaOH adjusted, 240 h): 0.507 w % | Acetal % ([4]; pH = 8.9, NaOH adjusted, 336 h): 17.2% | OPA % ([4]; pH = 8.9, NaOH adjusted, 336 h): 82.8% | OPA (w %) ([4]; pH = 8.9, NaOH adjusted, 336 h): 0.511 w % | Acetal % ([4]; pH = 8.9, NaOH adjusted, 480 h): 13.8% | OPA % ([4]; pH = 8.9, NaOH adjusted, 480 h): 86.2% | OPA (w %) ([4]; pH = 8.9, NaOH adjusted, 480 h): 0.521 w % | Acetal % ([4]; pH = 8.9, NaOH adjusted, 600 h): 11.0% | OPA % ([4]; pH = 8.9, NaOH adjusted, 600 h): 89.0% | OPA (w %) ([4]; pH = 8.9, NaOH adjusted, 600 h): 0.530 w % | Acetal % ([4]; pH = 8.9, NaOH adjusted, 720 h): 6.7% | OPA % ([4]; pH = 8.9, NaOH adjusted, 720 h): 93.3% | OPA (w %) ([4]; pH = 8.9, NaOH adjusted, 720 h): 0.542 w % | Acetal % ([4]; pH = 8.9, NaOH adjusted, 840 h): 4.6% | OPA % ([4]; pH = 8.9, NaOH adjusted, 840 h): 95.4% | OPA (w %) ([4]; pH = 8.9, NaOH adjusted, 840 h): 0.548 w % | Acetal % ([4]; pH = 8.9, NaOH adjusted, 960 h): 3.0% | OPA % ([4]; pH = 8.9, NaOH adjusted, 960 h): 97.0% | OPA (w %) ([4]; pH = 8.9, NaOH adjusted, 960 h): 0.553 w % | Acetal % [4, 12]: 1.2% | OPA % [4, 12]: 98.8% | OPA (w %) [4, 12]: 0.558 w %
SMILES: CCOC1OC(OCC)c2ccccc21 (centres unmarked) [1,3-diethoxyphthalan]
Dependence of hydrolysis rate on pH ([4]; range of pH investigated): the hydrolysis rate increases with decreasing pH

Mole % in reaction mixture during hydrolysis ([3]; 8 h): 20.3 Mole % | wt % in reaction mixture during hydrolysis ([3]; 8 h): 0.014 wt % | Mole % in reaction mixture during hydrolysis ([3]; 32 h): 66.1 Mole % | wt % in reaction mixture during hydrolysis ([3]; 32 h): 0.045 wt % | Mole % in reaction mixture during hydrolysis ([3]; 54 h): 100 Mole % | wt % in reaction mixture during hydrolysis ([3]; 54 h): 0.068 wt % | Solubility [5]: less than 0.4%
SMILES: O=Cc1cccc(C=O)c1 [IPA, 1,3-benzenedicarboxaldehyde, reference compound]
